In article PMC8080777, “Discovery, optimization, and evaluation of non-bile acid FXR/TGR5 dual agonists” (Scientific Reports, 2021):

How the values were obtained:
SHP mRNA = test: In vivo FXR assay: SHP mRNA in mice liver by real-time PCR; conditions: CDAHFD-fed C57BL/6J mice, single oral dose 100, 30 and 10 mg/kg, liver four hours after administration
Protocol: Test compounds were orally administered to 7-week old male C57BL/6J mice (Nippon Charles River Co., Ltd., Yokohama City, Kanagawa, Japan), that were administered CDAHFD (#A06071302, Research Diets, 20 Jules Lane, New Brunswick, NJ, USA) consisting 60 kcal% fat and 0.1% methionine by weight for 7 days. After four hours of administration, the liver was removed, and total RNA was extracted using a Pure Link RNA Mini Kit (Invitrogen, Thermo Fisher Scientific K. K., Minato-ku, Tokyo, Japan). The concentration of total RNA was measured using Micro Sample Spectrophotometer (SimpliNano, GE Healthcare UK Ltd, Amersham Place Little Chalfont Buckinghamshire, HP7 9NA UK), and cDNA was synthesized using ReverTra Ace qPCR RT Master Mix (Toyobo Co., Ltd., Osaka City, Osaka, Japan). Real-time PCR was performed using a CFX96 Touch Real-Time PCR Analysis System (CFX Manager, Bio-Rad, 1000 Alfred Nobel Drive, Hercules, CA, USA), and the mRNA expression levels of SHP and CYP7A1, the target genes of FXR, were measured using the intercalator method.
S4. In vitro, in vivo assay, and selectvity.
To directly evaluate the in vitro agonist activity towards FXR, test compounds were evaluated in CHO cells transfected with FXR responsive luciferase reporter (Nuclear Receptor & In Vitro Toxicology Solutions, Indigo Biosciences, State College, PA, USA). […]

OGTT blood glucose = type: in vivo; conditions: single oral 100 mg/kg, overnight-fasted C57 mice, 2 g/kg glucose one hour later, blood 15 min after loading
Protocol: To measure blood glucose levels, 100 mg/kg of test compounds 20p and 20q or vehicle were administered orally to overnight-fasted C57 mice (n = 5 mice/group, control; n = 10). One hour later, all mice were challenged with 2 g/kg glucose, and blood samples were collected after 15 min of glucose loading. The blood glucose levels were measured using LabAssay Glucose (FUJIFILM Wako Pure Chemical Corporation, Osaka City, Osaka, Japan)[56].
Amersham Place Little Chalfont Buckinghamshire, HP7 9NA UK), and cDNA was synthesized using ReverTra Ace qPCR RT Master Mix (Toyobo Co., Ltd., Osaka City, Osaka, Japan). Real-time PCR was performed using a CFX96 Touch Real-Time PCR Analysis System (CFX Manager, Bio-Rad, 1000 Alfred Nobel Drive, Hercules, CA, USA), and the mRNA expression levels of SHP and CYP7A1, the target gene s of FXR, were measured using the intercalator […]
In vivo assay protocol (GLP-1)
Measurement of GLP-1 secretion: To measure plasma GLP-1 levels, 100 mg/kg of compounds 20p and 20q were administered orally to overnight -fasted C57 mice (n=5 animals/group). One hour later, all mice were challenged with 2 g/kg glucose, and blood samples were collected after 15 min of glucose challenge test. Plasma GLP-1 levels were measured using the GLP-1 ELISA Kit Wako, High Sensitive (FUJIFILM Wako Pure Chemical Corporation, Osaka city, Osaka, […]
In vivo assay protocol (OGTT test) […]

Row | SMILES | Induction of SHP mRNA in the liver (SHP mRNA) | Blood glucose level on OGTT (OGTT blood glucose)
1 | COc1cc(Cl)cc(N(CC23CCC(c4ccc(OC)c(C#N)c4)(CC2)CC3)C(=O)c2ccncc2C)c1 [Compound 20p] | dose-dependently induced SHP mRNA in the liver | robustly lowered the blood glucose level
2 | COc1ccc(C23CCC(CN(C(=O)c4ccncc4C)c4cc(Cl)cc(Cl)c4)(CC2)CC3)cc1C#N [Compound 20q] | dose-dependently induced SHP mRNA in the liver | did not reduce the blood glucose level
